In US20170296616A1, “METHODS OF TREATING DEPRESSION USING NMDA MODULATORS” (Naurex, Inc., priority 2014, published 2017):
Residues, ends and D or L forms follow the SMILES beside them.

Key:
[1] = tested on: patients suffering with refractory depression; details: cited from earlier work; for change in Hamilton Depression Rating Score: patients with refractory depression; for side effects: reported for the NMDAR antagonists
[2] = tested on: subjects with MDD that had responded inadequately to another antidepressant agent; experiment: Repeat dose study of adjunctive GLYX-13 in human subjects (randomized withdrawal design); assay type: in vivo; details: for reduction of CGI-I score: baseline 4.3-4.6
Description: A repeat dose study was conducted on human subjects using adjunctive dosing (patients were currently taking another antidepressant medication). Dose levels of 5 mg/kg and 10 mg/kg were used with weekly or biweekly dose during an initial, stabilization period, as shown in FIGS. 7A and 7B (showing typical design of randomized withdrawal maintenance study). The disposition of the subjects, as indicated in FIGS. 7A and 7B was 144 nonresponders and […], where of the responders (70 patients assigned to weekly dosing, 36 patients assigned to biweekly dosing, 55 patients randomized to placebo). […] The study was blinded to third party raters (HDRS-17) and to clinicians of the treatment group (CGI-S).
Methods. GLYX-13 was administered over 12 weeks to subjects who had responded inadequately to another antidepressant agent. Subjects continued taking the other antidepressant during the entire course of the study. The study was divided into 3 parts. During the first 6 weeks, subjects were randomized to receive GLYX-13 at 5 mg/kg IV or 10 mg/kg IV. Subjects returned to the clinic weekly. If subjects had reached clinical response (HDRS-17 reduced ≧50% from baseline) to GLYX-13 administered the previous week, placebo was administered weekly until relapse (HDRS-17 reduced <50% from baseline). At the 6th week of evaluation, subjects who had achieved response to GLYX-13 at some visit were assigned to weekly or biweekly dosing based on time to relapse during placebo administration and randomized to continue receiving GLYX-13 or placebo (randomized withdrawal) for a subsequent 6 weeks of dosing. At the end of the randomized withdrawal period, subjects received placebo injections for 4 weeks. Subjects were blind to the treatments. Third party evaluators blind to treatment and protocol were utilized. Treatment dose and interval were calculated by an interactive web-based response system based on a mathematical algorithm; site personnel were blinded to treatment.

[3] = tested on: long-term potentiation (LTP); experiment: Long-term potentiation (LTP) after single or multiple bi-weekly doses (FIG. 3)
[4] = cited from earlier work
[5] = end of randomized withdrawal period, biweekly doses

SMILES: C[C@@H]([C@@H](O)c1ccc(O)cc1)N1CCC(O)(c2ccccc2)CC1 [CPC-101,606]
- change in Hamilton Depression Rating Score [1]: significant reductions
- side effects [1]: reportedly severe

SMILES: C[C@@H](O)[C@H](N)C(=O)N1CCC[C@H]1C(=O)N1CCC[C@H]1C(=O)N[C@H](C(N)=O)[C@@H](C)O [GLYX-13] (H-TPPT-NH2)
- improvements on HDRS scale during the rest period (randomized withdrawal) ([2]; FIG. 1, compared with the induction (stabilization) period): generally maintained
- improvements on Bech-6 scale during the rest period (randomized withdrawal) ([2]; FIG. 4, compared with the induction (stabilization) period): generally maintained
- improvements on CGI-S scale during the rest period ([2]; FIG. 5, Week 7 and Week 13): generally maintained
- subjects that relapsed more slowly ([2]; assigned to biweekly dosing in the randomized withdrawal period): 33%
- responders that relapsed within 2 weeks following cessation of GLYX-13 ([2]; assigned to weekly dosing in the randomized withdrawal period): Approximately 67%
- responders that relapsed quickly during early treatment ([2]; early treatment): About two-thirds
- responders that relapsed slowly, even during early treatment ([2]; early treatment): About one-third
- reduction of CGI-I score ([2]; end of randomized withdrawal period, 5 mg/kg IV weekly dose group): 2.5 ± 0.14
- percent of subjects that achieved remission ([2]; end of randomized withdrawal period, 5 mg/kg weekly group vs biweekly dose groups): not statistically different from the biweekly dose groups
- reduction of CGI-I score ([2]; end of randomized withdrawal period, 10 mg/kg IV group): 1.6±0.15
- subjects that reached remission (HDRS score <=7) ([2]; end of randomized withdrawal period, 10 mg/kg weekly): 42%
- subjects that achieved remission (HDRS score <=7) [2, 5]: 45%
- subjects that achieved response [2, 5]: 65%
- reduction of CGI-I score ([2]; end of randomized withdrawal period, biweekly groups): 2.5±0.12
- HDRS-17 score in responders ([2]; following 6 weeks of dosing, baseline 23.5±0.34, mean±S.E.M.): 10.3±0.65
- time after withdrawal of GLYX-13 without return of HDRS-17 score toward baseline ([2]; following 6 weeks of dosing, placebo thereafter): up to 10 weeks
- efficacy following forced relapse ([2]; repeated crossover GLYX-13 / placebo (FIG. 6)): Efficacy was reestablished following forced relapse
- side effects with repeated dosing ([2]; repeated dosing): without significant side effect
- tolerance with repeated dosing ([2]; repeated dosing): no tolerance apparent
- ultimate responders that showed response after one dose ([2]; stabilization phase, 5 or 10 mg/kg, after one dose): ~65%
- ultimate responders that showed response after three doses ([2]; stabilization phase, after three doses): ~85%
- ultimate responders that showed response after two doses ([2]; stabilization phase, after two doses): ~72%
- effect on long-term potentiation (LTP) ([3]; 24 hours and one week following a single dose): enhances long-term potentiation
- effect on long-term potentiation (LTP) ([3]; following multiple bi-weekly doses): persistently enhances LTP
- psychotomimetic side effects ([4]; compared with other drugs that target the NMDA receptor): lack the pyschotomimetic side effects
- antidepressant activity ([4]; in vivo): rapid-acting, robust, and sustained antidepressant activity

SMILES: CNC1(c2ccccc2Cl)CCCCC1=O (stereo not drawn) [ketamine]
- change in Hamilton Depression Rating Score [1]: significant reductions
- side effects [1]: reportedly severe
